# Measurements as given in US9616065B2, “Compositions useful in treating brain-related diseases or disorders and methods using same” (priority 2013, dated 2017).
# “Also recorded” adds a separate entry of the source. Where two headings read alike, the source gives them in different places.
# How the values were obtained:
# SmSERT = SmSERT (Schistosoma mansoni, UniProt Q3I1M7); test: Transport inhibition constants, SmSERT; format: cell-based
# [1] = molecular target: T1, hSERT 112C mutant (N112C) (Homo sapiens, UniProt P31645, N112C); test: MDMA-elicited [3H]-serotonin efflux in COS-7 cells, 112C mutant; format: cell-based; conditions: for effect on MDMA-elicited efflux: 112C (N112C) mutant, 1 μM modulator
# T1 construct: The templates were full-length and nontagged human SERT in pcdna3.1; expressed in transfected cells; host or cells: COS-7 (efflux)
# Experimental: (§1) COS-7 cells were maintained under the same conditions as above. Efflux experiments were performed 2 days after cell transfection with hSERT or empty vector and plating of the cells in 24-well plates. Cells were washed with room temperature PBS-CM and then loaded with 50 nM [^3H]-serotonin for 1 h. After preloading, cells were washed twice with buffer and then incubated for 10 min with or without substrates at room temperature. After incubation, the supernatant was collected, liquid scintillation fluid added, and the samples counted (Beckman LS-6500 Multi-purpose Scintillation Counter; Beckman Coulter, Brea, Calif.). The cells were solubilized in a solution of 0.1% sodium dodecyl sulfate and 0.1 M NaOH; liquid scintillation fluid was added and tubes were counted as above. All assays were done in quadruplicate.
# (§2) The percentage of [^3H]-serotonin efflux among different treatments was calculated by adding counts of supernatant plus cell lysis, with the supernatant counts then divided by the total and multiplied by 100 to yield the percentage of efflux.
# mSERT mutant YETQ-L563V = test: Substrate-elicited efflux, mSERT mutant YETQ-L563V; format: cell-based, mouse; conditions: up to highest testable concentration
# Experimental: Efflux is terminated by collecting the supernatant. Both cells and supernatant are counted by liquid scintillation counting. Efflux is calculated as ratio of supernatant over supernatant and cells.
# SERT [2] = molecular target: T2, SERT (Homo sapiens, UniProt P31645); test: cell-based
# T2 construct: The templates were full-length and nontagged human SERT in pcdna3.1; expressed in transfected cells; host or cells: COS-7, HEK293 or MDCK (uptake); COS-7 (efflux)
# Experimental: (§3) COS-7, HEK293, and MDCK cells were maintained in Dulbecco modified Eagle medium (3.5 g/l glucose) supplemented with FBS (10% each) at 37° C. with 5% CO2. Uptake experiments were performed 2 days after transfecting DNAs (hSERT, human dopamine transporter [hDAT], chimeras or mutants, or empty vector for background) with TransIT-LT1 (Minis Bio LLC, Madison, Wis., USA) transfection reagent and plating the cells in 24- or 96-well plates.
# (§4) The uptake was allowed to continue for 10 min at room temperature and was terminated by washing with PBS-CM. […] Vmax and KM are given as mean±S.D. of three independent experiments. […] EC50 values are given as mean±S.E.M. of at least five independent experiments. Statistical significance between vehicle and drug treatments was assessed using Student t-test or one-way analysis of variance (ANOVA) Dunnett's multiple-comparison test (p<0.05).
# wild-type human SERT = wild-type human SERT (Homo sapiens, UniProt P31645); test: MDMA-elicited [3H]-serotonin efflux in COS-7 cells, wild-type; format: cell-based; parameters: The templates were full-length and nontagged human SERT in pcdna3.1; expressed in transfected cells; host or cells: COS-7 (efflux); conditions: for effect on MDMA-elicited efflux: 1 μM modulator
# Experimental: as §1, §2
# hSERT 112C mutant = molecular target: T3, hSERT 112C mutant (Homo sapiens, UniProt P31645, N112C); test: Basal/leak [3H]-serotonin efflux in COS-7 cells, 112C mutant; format: cell-based
# T3 construct: The templates were full-length and nontagged human SERT in pcdna3.1; expressed in transfected cells; host or cells: COS-7 (efflux); COS-7, HEK293 or MDCK (uptake)
# Experimental: as §1, §2
# paroxetine binding sites = paroxetine binding sites (Homo sapiens, UniProt P31645); test: Paroxetine binding
# hDAT = molecular target: T4, hDAT (Homo sapiens, UniProt Q01959); test: [3H]-dopamine uptake after preincubation with modulator; format: cell-based
# T4 construct: expressed in transfected cells; host or cells: COS-7, HEK293 or MDCK
# T4 sequence (Q01959 whole entry): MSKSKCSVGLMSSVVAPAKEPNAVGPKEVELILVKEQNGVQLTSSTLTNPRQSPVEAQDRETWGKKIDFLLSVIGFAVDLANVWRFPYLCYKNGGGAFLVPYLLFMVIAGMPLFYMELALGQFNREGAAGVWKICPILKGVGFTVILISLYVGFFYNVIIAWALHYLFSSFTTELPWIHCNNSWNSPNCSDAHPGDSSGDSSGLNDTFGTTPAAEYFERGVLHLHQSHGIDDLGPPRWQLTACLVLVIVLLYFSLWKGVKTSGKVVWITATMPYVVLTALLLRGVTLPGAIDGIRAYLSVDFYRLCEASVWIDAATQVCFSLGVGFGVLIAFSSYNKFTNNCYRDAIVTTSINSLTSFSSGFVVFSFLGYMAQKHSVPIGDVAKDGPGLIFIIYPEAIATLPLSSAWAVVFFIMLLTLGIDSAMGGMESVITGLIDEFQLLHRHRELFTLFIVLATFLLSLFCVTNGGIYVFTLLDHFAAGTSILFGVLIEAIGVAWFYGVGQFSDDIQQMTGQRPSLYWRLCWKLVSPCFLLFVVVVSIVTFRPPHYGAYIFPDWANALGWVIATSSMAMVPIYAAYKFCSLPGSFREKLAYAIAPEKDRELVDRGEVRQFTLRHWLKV
# Experimental: as §3, §4
# SERT [3] = molecular target: T2, SERT; test: [3H]-serotonin uptake after preincubation with modulator; format: cell-based; conditions: for effect on Vmax of serotonin uptake: serotonin uptake kinetics
# Experimental: as §3, §4
# hSERT wild-type = molecular target: T5, hSERT wild-type (Homo sapiens, UniProt P31645); test: Basal/leak [3H]-serotonin efflux in COS-7 cells, wild-type; format: cell-based; conditions: no extracellular substrate, read-out: IC50 inhibition of basal/leak efflux
# T5 construct: The templates were full-length and nontagged human SERT in pcdna3.1; expressed in transfected cells; host or cells: COS-7 (efflux)
# Experimental: as §1, §2
# SERT E493D mutant = molecular target: T6, SERT E493D mutant (Homo sapiens, UniProt P31645, E493D); test: SERT function with mutated extracellular gate; format: cell-based
# T6 construct: The templates were full-length and nontagged human SERT in pcdna3.1; expressed in transfected cells; host or cells: COS-7
# SERT [4] = molecular target: T2, SERT; test: SERT-mediated serotonin uptake inhibition by SSRIs in presence of modulator; format: cell-based; conditions: effect weaker than with citalopram
# Experimental: as §3, with “plates. The media was removed and the cells were washed with PBS (137 mM NaCl, 2.7 mM KCl, 4.3 mM Na2HPO4, 1.4 mM KH2PO4, pH 7.4) containing 0.1 mM CaCl2, 1 mM MgCl2, 10 μM clorgyline, 10 μM pargyline, 5 μM RO 41-0960, and 100 μM ascorbic acid (PBS-CM).” for “plates.”
# Mutants are functionally tested in transfected COS-7 cells. Based on the success of the approach that identified the A1 site, the critical residues identified elsewhere herein are tested for changes in uptake kinetics and amphetamine-mediated efflux. Following this initial screen, residues displaying altered activity are tested further in uptake inhibition and ligand displacement assays. […] Following uptake, cells are washed and radioactivity is counted using liquid scintillation counting. […] Apparent Km and Vmax are determined using nonlinear regression analysis. The interaction of WT and mutant MAT with psychostimulants and transporter inhibitors is assessed using uptake inhibition assays. […]
# Chain of SmSERT (Q3I1M7 entry or part of it): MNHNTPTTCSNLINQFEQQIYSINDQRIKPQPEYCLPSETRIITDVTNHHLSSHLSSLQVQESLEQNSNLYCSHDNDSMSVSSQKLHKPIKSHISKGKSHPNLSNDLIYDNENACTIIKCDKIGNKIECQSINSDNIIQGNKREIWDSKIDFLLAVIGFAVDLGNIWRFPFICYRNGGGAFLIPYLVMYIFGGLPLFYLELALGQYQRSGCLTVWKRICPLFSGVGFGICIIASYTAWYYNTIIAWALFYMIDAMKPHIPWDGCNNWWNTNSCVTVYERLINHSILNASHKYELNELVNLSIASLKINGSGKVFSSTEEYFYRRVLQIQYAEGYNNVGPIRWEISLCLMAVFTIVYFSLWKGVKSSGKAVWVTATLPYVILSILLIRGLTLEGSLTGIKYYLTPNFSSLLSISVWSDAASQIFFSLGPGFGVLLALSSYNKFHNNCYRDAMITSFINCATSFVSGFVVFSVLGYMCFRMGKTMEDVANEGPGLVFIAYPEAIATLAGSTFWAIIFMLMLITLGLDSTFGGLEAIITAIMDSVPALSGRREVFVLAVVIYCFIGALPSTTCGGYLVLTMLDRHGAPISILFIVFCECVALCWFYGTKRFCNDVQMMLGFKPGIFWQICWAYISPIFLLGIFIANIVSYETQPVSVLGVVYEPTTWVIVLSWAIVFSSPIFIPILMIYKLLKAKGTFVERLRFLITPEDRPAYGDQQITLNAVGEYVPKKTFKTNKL
compound,measurement,setting,value
"CNC(C)Cc1ccc2c(c1)OCO2 (racemic) [(±)MDMA, methylenedioxy-methamphetamine]",Ki,SmSERT,313 ± 159 µM
same,affinity for MDMA of mutant versus wild-type,"[1]; N112C, dose-response experiment with MDMA",reduced by fivefold
same,reversal of transport (efflux),mSERT mutant YETQ-L563V,did not elicit any significant reversal of transport
same,Ki,SERT [2],2700 ± 500 nM
"CN(C)c1ccc(C(C(=O)NCc2ccccc2)N(Cc2cccnc2)C(=O)c2snc(C(N)=O)c2N)cc1 (stereo not drawn) [ATM7, 4-amino-N^5-{2-(benzylamino)-1-[4-(dimethylamino)phenyl]-2-oxoethyl}-N^5-(3-pyridinylmethyl)-1,2-thiazole-3,5-dicarboxamide]",effect on affinity for MDMA,wild-type human SERT; 1 μM ATM7,not affected
same,efficacy of MDMA in eliciting release of intracellular serotonin in the presence of ATM7,"wild-type human SERT; 1 μM ATM7, vehicle treated 380%±10%",510%±17%
same,effect on MDMA-elicited efflux,wild-type human SERT,enhanced MDMA-elicited efflux
same,effect on MDMA-elicited efflux,wild-type human SERT; listed as KM-986,potentiates MDMA-elicited efflux
same,IC50,hSERT 112C mutant,37 ± 25 nM
same,effect on paroxetine binding sites,paroxetine binding sites,decreased
same,efficacy of MDMA in eliciting release of intracellular serotonin in the presence of ATM7,"[1]; 1 μM ATM7, 112C mutant, vehicle treated 365%±40%",375%±45%
same,effect on MDMA-elicited efflux,[1],had no effect on MDMA-elicited efflux
same,effect on MDMA-elicited efflux,[1]; listed as KM-986,does not show KM-986-mediated potentiation of MDMA-elicited efflux
same,effect on DAT uptake activity / specificity,hDAT,also DAT activity at higher concentrations
same,effect on SERT uptake activity / specificity,SERT [3],activated serotonin uptake very potently at nanomolar concentrations
same,shape of concentration response on transporter uptake,SERT [3],bell-shaped response
same,activation of serotonin uptake,SERT [3]; dose-response assay,up to 50%
same,shape of concentration response on transporter uptake,SERT [3]; listed as KM-986,"biphasic mode of action, enhancing transporter activity at low concentrations and inhibiting transporter function at higher concentrations"
same,effect on Vmax of serotonin uptake,SERT [3],did not affect Vmax; also recorded: no effect
same,effect on Vmax of serotonin uptake,SERT [3]; listed as KM-986,do not observe any effect; also recorded: no effect
same,effect on hSERT uptake at low and high substrate concentration,SERT [3]; substrate 25 and 100 nM,displayed activity only at low concentrations
same,IC50,hSERT wild-type,0.63 ± 0.31 nM
"Cc1cc2nc(-c3ccc(SCC(=O)Nc4ccc(S(=O)(=O)NC5CC5)cc4)nc3)[nH]c2cc1C [ATM1, N-[4-(cyclopropylsulfamoyl)phenyl]-2-{[5-(5,6-dimethyl-1H-benzimidazol-2-yl)-2-pyridinyl]sulfanyl}acetamide]",effect on SERT function,SERT E493D mutant,not affected
same,effect on affinity of fluoxetine for SERT,SERT [4],decreasing their affinity for SERT
same,effect on SERT uptake activity / specificity,SERT [3],SERT-specific inhibitor
same,mechanism of SERT inhibition,SERT [3]; Vmax and KM,non-competitive mechanism
same,effect on SERT uptake activity / specificity,SERT [3]; listed as KM-456,specific for SERT
